Counter-ions that a name gives are not always drawn.
The compounds below were run against PD-1/PD-L1 (Homo sapiens (Human), UniProt Q9NZQ7) (assay: PD-1/PD-L1 Homogenous Time-Resolved Fluorescence (HTRF) binding assay). Details: PD-1-Ig (20 nM final)/PD-L1-His (10 nM final) binding assay.
Method in brief: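 Compounds pre-incubated 15 min with human PD-L1(18-239)-His (10 nM final), then 15 min with PD-1(25-167)-Ig (20 nM final), in dPBS with 0.1% BSA and 0.05% Tween-20. Detection with Eu-cryptate anti-Ig (1 nM) and APC anti-His (20 nM) after 30 min equilibration; 665/620 nm ratio read.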

PD-1/PD-L1, sequence (Q9NZQ7 18-239): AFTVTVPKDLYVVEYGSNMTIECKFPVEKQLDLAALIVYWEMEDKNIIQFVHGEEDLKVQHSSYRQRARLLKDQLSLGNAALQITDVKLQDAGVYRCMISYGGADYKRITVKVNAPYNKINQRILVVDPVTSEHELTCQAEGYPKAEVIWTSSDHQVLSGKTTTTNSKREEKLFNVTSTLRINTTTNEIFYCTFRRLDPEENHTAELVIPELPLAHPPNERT

Structure (SMILES) | IC50
Cc1c(COc2cc(OCCN3CCC(O)(C(=O)O)CC3)c(CN3CCCC[C@H]3C(=O)O)cc2Cl)cccc1-c1ccc2c(c1)OCCO2 [Example 1054, (S)-1-(2-(2-(4-Carboxy-4-hydroxypiperidin-1-yl)ethoxy)-5-chloro-4-((3-(2,3-dihydrobenzo[b]1[1,4]dioxin-6-yl)-2-methylbenzyl)oxy)benzyl)piperidine-2-carboxylic acid] | 1.8 nM
Cc1c(COc2cc(OCCN3CCC(O)(C(=O)O)CC3)c(CN[C@](C)(CO)C(=O)O)cc2Cl)cccc1-c1ccc2c(c1)OCCO2 [Example 1055, (R)-1-(2-(2-(((2-Carboxy-1-hydroxypropan-2-yl)amino)methyl)-4-chloro-5-((3-(2,3-dihydrobenzo[b]1[1,4]dioxin-6-yl)-2-methylbenzyl)oxy)phenoxy)ethyl)-4-hydroxypiperidine-4-carboxylic acid] | 0.4 nM
Cc1c(COc2cc(OCCN3CCC(O)(C(=O)O)CC3)c(CNC(C)(CO)CO)cc2Cl)cccc1-c1ccc2c(c1)OCCO2 [Example 1056, 1-(2-(4-Chloro-5-((3-(2,3-dihydrobenzo[b][1,4]dioxin-6-yl)-2-methylbenzyl)oxy)-2-(((1,3-dihydroxy-2-methylpropan-2-yl)amino)methyl)phenoxy)ethyl)-4-hydroxypiperidine-4-carboxylic acid] | 0.6 nM
Cc1c(COc2cc(OCCN3CCCC(O)(C(F)(F)F)C3)c(CN[C@](C)(CO)C(=O)O)cc2Cl)cccc1-c1ccc2c(c1)OCCO2 (stereo partly drawn) [Example 1057, (2R)-2-((5-Chloro-4-((3-(2,3-dihydrobenzo[b][1,4]dioxin-6-yl)-2-methylbenzyl)oxy)-2-(2-(3-hydroxy-3-(trifluoromethyl)piperidin-1-yl)ethoxy)benzyl)amino)-3-hydroxy-2-methylpropanoic acid] | 6.2 nM
Cc1c(COc2cc(OCCN3CCCC(O)(C(F)(F)F)C3)c(CN3CCCC[C@H]3C(=O)O)cc2Cl)cccc1-c1ccc2c(c1)OCCO2 (stereo partly drawn) [Example 1058, (2S)-1-(5-Chloro-4-((3-(2,3-dihydrobenzo[b][1,4]dioxin-6-yl)-2-methylbenzyl)oxy)-2-(2-(3-hydroxy-3-(trifluoromethyl)piperidin-1-yl)ethoxy)benzyl)piperidine-2-carboxylic acid] | 21.8 nM
Cc1c(COc2cc(OCCN3CCCC(O)(C(F)(F)F)C3)c(CNC(C)(CO)CO)cc2Cl)cccc1-c1ccc2c(c1)OCCO2 (stereo not drawn) [Example 1059, 2-((5-Chloro-4-((3-(2,3-dihydrobenzo[b][1,4]dioxin-6-yl)-2-methylbenzyl)oxy)-2-(2-(3-hydroxy-3-(trifluoromethyl)piperidin-1-yl)ethoxy)benzyl)amino)-2-methylpropane-1,3-diol] | 2.2 nM
Cc1c(COc2cc(OCCN3CCS(=O)(=O)CC3)c(CN3CCCC[C@H]3C(=O)O)cc2Cl)cccc1-c1ccc2c(c1)OCCO2 [Example 1060, (S)-1-(5-chloro-4-((3-(2,3-dihydrobenzo[b][1,4]dioxin-6-yl)-2-methylbenzyl)oxy)-2-(2-(1,1-dioxidothiomorpholino)ethoxy)benzyl)piperidine-2-carboxylic acid] | 9.2 nM
Cc1c(COc2cc(OCC(=O)N3CCS(=O)(=O)CC3)c(CN3CCCC[C@H]3C(=O)O)cc2Cl)cccc1-c1ccc2c(c1)OCCO2 [Example 1061, (S)-1-(5-chloro-4-((3-(2,3-dihydrobenzo[b][1,4]dioxin-6-yl)-2-methylbenzyl)oxy)-2-(2-(1,1-dioxidothiomorpholino)-2-oxoethoxy)benzyl)piperidine-2-carboxylic acid] | 455 nM
Cc1c(COc2cc(OCCCN(C)C)c(CN[C@@](C)(CO)C(=O)O)cc2Cl)cccc1-c1ccc2c(c1)OCCO2 [Example 2001, (S)-2-((5-chloro-4-((3-(2,3-dihydrobenzo[b][1,4]dioxin-6-yl)-2-methylbenzyl)oxy)-2-(3-(dimethylamino)propoxy)benzyl)amino)-3-hydroxy-2-methylpropanoic acid] | 9.5 nM
Cc1c(COc2cc(OCCCN(C)C)c(CN[C@@H](CO)C(=O)O)cc2Cl)cccc1-c1ccc2c(c1)OCCO2 [Example 2002, (S)-2-((5-chloro-4-((3-(2,3-dihydrobenzo[b][1,4]dioxin-6-yl)-2-methylbenzyl)oxy)-2-(3-(dimethylamino)propoxy)benzyl)amino)-3-hydroxypropanoic acid] | 6.5 nM
Cc1c(COc2cc(OCC3CCCN(C)C3)c(CN[C@@](C)(CO)C(=O)O)cc2Cl)cccc1-c1ccc2c(c1)OCCO2 (stereo partly drawn) [Example 2003, (2S)-2-((5-chloro-4-((3-(2,3-dihydrobenzo[b][1,4]dioxin-6-yl)-2-methylbenzyl)oxy)-2-((1-methylpiperidin-3-yl)methoxy)benzyl)amino)-3-hydroxy-2-methylpropanoic acid] | 6.5 nM
Cc1c(COc2cc(OCC3CCCN(C)C3)c(CN[C@@H](CO)C(=O)O)cc2Cl)cccc1-c1ccc2c(c1)OCCO2 (stereo partly drawn) [Example 2004, (2S)-2-((5-chloro-4-((3-(2,3-dihydrobenzo[b][1,4]dioxin-6-yl)-2-methylbenzyl)oxy)-2-((1-methylpiperidin-3-yl)methoxy)benzyl)amino)-3-hydroxypropanoic acid] | 5.8 nM
Cc1c(COc2cc(OCc3cncc(C(=O)NCCCN(C)C)c3)c(CN3CC[C@H](O)C3)cc2Cl)cccc1-c1ccc2c(c1)OCCO2 [Example 2007, (S)-5-((4-chloro-5-((3-(2,3-dihydrobenzo[b][1,4]dioxin-6-yl)-2-methylbenzyl)oxy)-2-((3-hydroxypyrrolidin-1-yl)methyl)phenoxy)methyl)-N-(3-(dimethylamino)propyl)nicotinamide] | 3.4 nM
Cc1c(COc2cc(OCc3cncc(C(=O)NCCC(=O)O)c3)c(CN3CC[C@H](O)C3)cc2Cl)cccc1-c1ccc2c(c1)OCCO2 [Example 2008, (S)-3-(5-((4-chloro-5-((3-(2,3-dihydrobenzo[b][1,4]dioxin-6-yl)-2-methylbenzyl)oxy)-2-((3-hydroxypyrrolidin-1-yl)methyl)phenoxy)methyl)nicotinamido)propanoic acid] | 5.2 nM
Cc1c(COc2cc(OCc3cncc(C(=O)N[C@@H](CO)C(=O)O)c3)c(CN3CC[C@H](O)C3)cc2Cl)cccc1-c1ccc2c(c1)OCCO2 [Example 2009, (S)-2-(5-((4-chloro-5-((3-(2,3-dihydrobenzo[b][1,4]dioxin-6-yl)-2-methylbenzyl)oxy)-2-(((S)-3-hydroxypyrrolidin-1-yl)methyl)phenoxy)methyl)nicotinamido)-3-hydroxypropanoic acid] | 4.6 nM
Cc1c(COc2cc(OCc3cncc(C(=O)N[C@@H](CCCNC(=N)N)C(=O)O)c3)c(CN3CC[C@H](O)C3)cc2Cl)cccc1-c1ccc2c(c1)OCCO2 [Example 2010, (S)-2-(5-((4-chloro-5-((3-(2,3-dihydrobenzo[b][1,4]dioxin-6-yl)-2-methylbenzyl)oxy)-2-(((S)-3-hydroxypyrrolidin-1-yl)methyl)phenoxy)methyl)nicotinamido)-5-guanidinopentanoic acid] | 6.5 nM
Cc1c(COc2cc(OCC3CNCCO3)c(CN3CCCC[C@H]3C(=O)O)cc2Cl)cccc1-c1ccc2c(c1)OCCO2 (stereo partly drawn) [Example 2011, (2S)-1-(5-Chloro-4-((3-(2,3-dihydrobenzo[b][1,4]dioxin-6-yl)-2-methylbenzyl)oxy)-2-(morpholin-2-ylmethoxy)benzyl)piperidine-2-carboxylic acid acetic acid salt] | 26.5 nM
Cc1c(COc2cc(OCC3CCCN(C)C3)c(CN3CCCC[C@H]3C(=O)O)cc2Cl)cccc1-c1ccc2c(c1)OCCO2 (stereo partly drawn) [Example 2012, (2S)-1-(5-Chloro-4-((3-(2,3-dihydrobenzo[b][1,4]dioxin-6-yl)-2-methylbenzyl)oxy)-2-((1-methylpiperidin-3-yl)methoxy)benzyl)piperidine-2-carboxylic acid] | 28.5 nM

— patent US20250230153A1, “2,3-DIHYDROBENZO[B][1,4]DIOXIN-6-YL CONTAINING COMPOUNDS USEFUL AS IMMUNOMODULATORS” (BRISTOL-MYERS SQUIBB COMPANY, priority 2021, published 2025)
